# Where a SMILES comes first, the peptide text is derived from it. Bridges are numbered along the chain shown (N, C = ends).
# Tests used:
# [1] = target: T1, Neuronal acetylcholine receptor subunit alpha-7 (Rattus norvegicus, UniProt Q05941); assay: Antagonist activity at rat alpha7 nAChR expressed in xenopus oocytes assessed as inhibition of Ach- induced response at -80 mV holding potential incubated for 200 secs followed by Ach stimulation by voltage-clamp based electrophysiological method; type: cell-based, Oocyte
# T1 sequence (Q05941 whole entry): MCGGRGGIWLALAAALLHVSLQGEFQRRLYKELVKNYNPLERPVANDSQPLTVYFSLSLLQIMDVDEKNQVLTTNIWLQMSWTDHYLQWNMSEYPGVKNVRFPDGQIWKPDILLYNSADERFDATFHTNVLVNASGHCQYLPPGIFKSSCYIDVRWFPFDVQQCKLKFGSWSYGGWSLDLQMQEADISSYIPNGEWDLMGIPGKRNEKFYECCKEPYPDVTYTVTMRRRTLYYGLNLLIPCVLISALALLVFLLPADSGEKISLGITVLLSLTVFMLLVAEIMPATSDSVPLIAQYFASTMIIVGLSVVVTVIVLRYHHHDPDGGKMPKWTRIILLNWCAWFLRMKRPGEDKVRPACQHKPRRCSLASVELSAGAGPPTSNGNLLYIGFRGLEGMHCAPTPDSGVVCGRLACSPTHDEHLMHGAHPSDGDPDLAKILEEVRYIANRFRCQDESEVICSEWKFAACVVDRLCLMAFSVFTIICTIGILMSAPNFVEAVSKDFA
# [2] = target: T2, Neuronal acetylcholine receptor; alpha3/beta4 (Rattus norvegicus, UniProt P04757+P12392); assay: Antagonist activity at rat alpha3beta4 nAChR expressed in xenopus oocytes assessed as inhibition of Ach- induced response at -80 mV holding potential incubated for 200 secs followed by Ach stimulation by voltage-clamp based electrophysiological method; type: cell-based, Oocyte
# T2 sequence (P04757 whole entry): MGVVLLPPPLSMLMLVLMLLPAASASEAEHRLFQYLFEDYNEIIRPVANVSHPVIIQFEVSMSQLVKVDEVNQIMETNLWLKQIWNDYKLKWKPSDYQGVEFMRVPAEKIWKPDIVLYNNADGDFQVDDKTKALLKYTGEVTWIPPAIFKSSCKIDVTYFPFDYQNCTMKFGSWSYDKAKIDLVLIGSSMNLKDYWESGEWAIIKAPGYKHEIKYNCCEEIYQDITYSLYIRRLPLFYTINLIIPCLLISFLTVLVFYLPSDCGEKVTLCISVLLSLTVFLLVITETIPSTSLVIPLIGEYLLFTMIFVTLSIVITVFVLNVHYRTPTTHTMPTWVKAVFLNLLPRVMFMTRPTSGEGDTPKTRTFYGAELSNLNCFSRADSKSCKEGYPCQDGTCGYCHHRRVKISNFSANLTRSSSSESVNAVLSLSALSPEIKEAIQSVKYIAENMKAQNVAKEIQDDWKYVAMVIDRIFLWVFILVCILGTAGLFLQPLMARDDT
# T2 sequence (P12392 whole entry): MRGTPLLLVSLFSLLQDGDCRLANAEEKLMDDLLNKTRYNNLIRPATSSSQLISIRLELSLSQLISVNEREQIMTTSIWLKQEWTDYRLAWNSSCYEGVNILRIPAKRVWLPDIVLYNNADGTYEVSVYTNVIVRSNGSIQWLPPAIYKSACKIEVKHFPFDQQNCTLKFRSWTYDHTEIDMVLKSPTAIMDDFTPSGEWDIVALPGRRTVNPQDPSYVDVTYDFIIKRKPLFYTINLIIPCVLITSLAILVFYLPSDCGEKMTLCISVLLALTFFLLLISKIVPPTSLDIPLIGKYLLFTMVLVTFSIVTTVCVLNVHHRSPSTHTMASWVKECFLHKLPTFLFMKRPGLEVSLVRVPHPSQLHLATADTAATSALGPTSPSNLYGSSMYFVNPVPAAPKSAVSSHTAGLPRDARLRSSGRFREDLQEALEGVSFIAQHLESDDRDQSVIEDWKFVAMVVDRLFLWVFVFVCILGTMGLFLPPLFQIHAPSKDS
# [3] = target: Neuronal acetylcholine receptor; alpha3/beta2 (Rattus norvegicus, UniProt P04757+P12390); assay: Antagonist activity at rat alpha3beta2 nAChR expressed in xenopus oocytes assessed as inhibition of Ach- induced response at -70 mV holding potential preincubated for 5 mins followed by Ach stimulation by voltage-clamp based electrophysiological method; type: cell-based, Oocyte
# Chain of Neuronal acetylcholine receptor; alpha3/beta2 (P04757 whole entry): as the sequence (P04757 whole entry) above
# Chain of Neuronal acetylcholine receptor; alpha3/beta2 (P12390 whole entry): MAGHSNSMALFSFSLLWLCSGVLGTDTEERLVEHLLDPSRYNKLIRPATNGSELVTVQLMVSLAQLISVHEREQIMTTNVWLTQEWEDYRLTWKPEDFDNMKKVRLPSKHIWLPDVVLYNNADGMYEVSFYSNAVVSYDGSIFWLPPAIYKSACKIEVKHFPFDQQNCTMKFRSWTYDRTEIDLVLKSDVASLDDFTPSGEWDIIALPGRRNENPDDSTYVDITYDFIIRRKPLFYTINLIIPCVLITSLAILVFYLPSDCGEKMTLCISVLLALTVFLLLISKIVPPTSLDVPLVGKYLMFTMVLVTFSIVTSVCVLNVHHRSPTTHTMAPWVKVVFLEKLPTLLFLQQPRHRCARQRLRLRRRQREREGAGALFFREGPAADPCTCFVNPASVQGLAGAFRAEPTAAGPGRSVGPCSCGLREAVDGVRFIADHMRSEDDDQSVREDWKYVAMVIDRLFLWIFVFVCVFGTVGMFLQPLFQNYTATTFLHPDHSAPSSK
# [4] = target: T2, Neuronal acetylcholine receptor; alpha3/beta4; assay: Antagonist activity at rat alpha3beta4 nAChR; type: protein-complex assay
# [5] = Antagonist activity at rat alpha6/ alpha3beta2beta3 nAChR expressed in xenopus oocytes assessed as inhibition of Ach- induced response at -70 mV holding potential preincubated for 5 mins followed by Ach stimulation by voltage-clamp based electrophysiological method; type: cell-based; settings: Oocyte
# [6] = target: T3, Nicotinic acetylcholine receptor alpha6/alpha3/beta4 (Homo sapiens, UniProt P30926+P32297+Q15825); assay: Antagonist activity at rat alpha6/alpha3beta4 nAChR expressed in xenopus oocytes assessed as inhibition of Ach- induced response at -70 mV holding potential preincubated for 5 mins followed by Ach stimulation by voltage-clamp based electrophysiological method; type: cell-based, Oocyte
# T3 sequence (P30926 whole entry): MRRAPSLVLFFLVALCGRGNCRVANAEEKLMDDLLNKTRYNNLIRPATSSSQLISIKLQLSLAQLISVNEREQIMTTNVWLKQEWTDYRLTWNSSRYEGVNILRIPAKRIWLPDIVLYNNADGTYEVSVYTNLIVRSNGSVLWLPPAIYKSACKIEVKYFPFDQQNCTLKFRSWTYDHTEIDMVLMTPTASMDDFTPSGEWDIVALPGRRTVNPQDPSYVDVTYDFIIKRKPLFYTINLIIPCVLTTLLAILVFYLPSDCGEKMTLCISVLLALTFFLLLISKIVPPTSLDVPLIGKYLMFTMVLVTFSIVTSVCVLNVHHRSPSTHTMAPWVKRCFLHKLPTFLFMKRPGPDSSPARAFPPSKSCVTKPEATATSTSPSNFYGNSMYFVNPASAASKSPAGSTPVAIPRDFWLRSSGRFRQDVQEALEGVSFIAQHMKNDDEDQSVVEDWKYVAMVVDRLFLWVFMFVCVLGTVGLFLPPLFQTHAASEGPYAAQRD
# T3 sequence (P32297 whole entry): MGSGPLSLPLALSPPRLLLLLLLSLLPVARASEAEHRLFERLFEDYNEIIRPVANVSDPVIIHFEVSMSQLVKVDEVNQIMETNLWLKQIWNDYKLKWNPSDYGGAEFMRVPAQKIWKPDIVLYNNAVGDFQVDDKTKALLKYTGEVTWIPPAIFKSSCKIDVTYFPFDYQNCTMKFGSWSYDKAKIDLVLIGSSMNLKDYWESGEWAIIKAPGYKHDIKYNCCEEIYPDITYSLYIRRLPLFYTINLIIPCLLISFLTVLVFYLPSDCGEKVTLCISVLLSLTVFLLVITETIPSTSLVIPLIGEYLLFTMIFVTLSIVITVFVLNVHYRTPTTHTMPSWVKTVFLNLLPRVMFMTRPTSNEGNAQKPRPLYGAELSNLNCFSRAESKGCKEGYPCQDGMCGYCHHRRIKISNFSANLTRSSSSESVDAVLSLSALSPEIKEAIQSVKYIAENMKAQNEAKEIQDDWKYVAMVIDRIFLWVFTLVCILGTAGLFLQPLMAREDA
# T3 sequence (Q15825 whole entry): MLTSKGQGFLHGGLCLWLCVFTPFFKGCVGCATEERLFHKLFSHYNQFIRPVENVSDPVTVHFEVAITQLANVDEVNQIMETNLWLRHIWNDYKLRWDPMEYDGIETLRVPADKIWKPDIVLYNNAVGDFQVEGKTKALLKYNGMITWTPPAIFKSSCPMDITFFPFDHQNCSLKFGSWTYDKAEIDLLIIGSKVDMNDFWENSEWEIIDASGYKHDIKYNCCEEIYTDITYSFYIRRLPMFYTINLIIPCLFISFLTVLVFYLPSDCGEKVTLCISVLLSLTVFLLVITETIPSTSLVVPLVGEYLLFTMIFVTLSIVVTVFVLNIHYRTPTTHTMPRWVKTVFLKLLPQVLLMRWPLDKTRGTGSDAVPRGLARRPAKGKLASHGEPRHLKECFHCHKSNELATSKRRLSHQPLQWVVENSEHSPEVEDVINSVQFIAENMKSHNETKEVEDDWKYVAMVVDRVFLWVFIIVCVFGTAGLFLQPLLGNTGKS
# [7] = target: T1, Neuronal acetylcholine receptor subunit alpha-7; assay: Antagonist activity at rat alpha7 nAChR expressed in xenopus oocytes assessed as inhibition of Ach- induced response at -70 mV holding potential preincubated for 5 mins followed by Ach stimulation by voltage-clamp based electrophysiological method; type: cell-based, Oocyte
# [8] = target: T1, Neuronal acetylcholine receptor subunit alpha-7; assay: Antagonist activity at rat alpha7 nAChR expressed in xenopus oocytes assessed as inhibition of Ach- induced response at -100 mV holding potential incubated for 200 secs followed by acetyl choline stimulation by two- electrode voltage-clamp based electrophysiological method; type: cell-based, Oocyte
# [9] = target: T2, Neuronal acetylcholine receptor; alpha3/beta4; assay: Antagonist activity at rat alpha3beta4 nAChR expressed in xenopus oocytes assessed as inhibition of Ach- induced response at -70 mV holding potential preincubated for 5 mins followed by Ach stimulation by voltage-clamp based electrophysiological method; type: cell-based, Oocyte
# [10] = Antagonist activity at rat alpha6/ alpha3beta2beta3 nAChR
# [11] = target: T3, Nicotinic acetylcholine receptor alpha6/alpha3/beta4; assay: Antagonist activity at rat alpha6/alpha3beta4 nAChR; type: protein-complex assay; settings: target entry is the homologue from another species
smiles,measurement,setting,value
CC(C)[C@@H]1NC(=O)[C@H](Cc2cnc[nH]2)NC(=O)[C@@H]2CCCN2C(=O)[C@H](CC(N)=O)NC(=O)[C@H](CC(N)=O)NC(=O)[C@H](C(C)C)NC(=O)[C@H](CCCNC(=N)N)NC(=O)[C@@H]2CSSC[C@H](NC(=O)[C@H](CCC(=O)O)NC(=O)[C@@H](N)CC(=O)O)C(=O)N[C@@H](CSSC[C@@H](C(=O)N[C@@H](CCCNC(=N)N)C(=O)N[C@@H](CCCNC(=N)N)C(=O)N[C@@H](CCCNC(=N)N)C(=O)O)NC1=O)C(=O)N[C@@H](CO)C(=O)N[C@@H](CC(N)=O)C(=O)N1CCC[C@H]1C(=O)N[C@@H](C)C(=O)N2,IC50,[1],0.005 µM
same,IC50,[2],0.003 µM
CC(C)C[C@@H]1NC(=O)[C@H](C(C)C)NC(=O)[C@H](C)NC(=O)[C@@H]2CSSC[C@H](NC(=O)CN)C(=O)N[C@@H](CSSC[C@H](C(=O)NCC(=O)O)NC(=O)[C@H](Cc3ccc(O)cc3)NC1=O)C(=O)N[C@@H](CO)C(=O)N[C@@H]([C@@H](C)O)C(=O)N1CCC[C@H]1C(=O)N1CCC[C@H]1C(=O)N2,IC50,[3],0.0057 µM
same,IC50,[4],0.0377 µM
same,IC50,[5],0.000258 µM
same,IC50,[6],0.0015 µM
C[C@H](N)C(=O)N[C@H]1CSSC[C@@H]2NC(=O)[C@H](CCCNC(=N)N)NC(=O)[C@H](CCCNC(=N)N)NC(=O)[C@H](CC(=O)O)NC(=O)[C@H](CO)NC(=O)[C@H](CSSC[C@H](C(N)=O)NC(=O)[C@H](CCCNC(=N)N)NC(=O)[C@H](Cc3c[nH]c4ccccc34)NC(=O)[C@H](CCCNC(=N)N)NC2=O)NC1=O,IC50,[7],0.44 µM
"CC[C@H](C)[C@@H]1NC(=O)[C@H](Cc2cnc[nH]2)NC(=O)[C@@H]2CCCN2C(=O)[C@H](CC(N)=O)NC(=O)[C@H](CC(N)=O)NC(=O)[C@H](C(C)C)NC(=O)[C@H](CC(N)=O)NC(=O)[C@@H]2CSSC[C@H](NC(=O)CN)C(=O)N[C@@H](CSSC[C@@H](C(=O)NCC(N)=O)NC1=O)C(=O)N[C@@H](CO)C(=O)N[C@@H](Cc1cnc[nH]1)C(=O)N1CCC[C@H]1C(=O)N[C@@H](C)C(=O)N2 (H-GCCSHPACNVNNPHICG-NH2; disulfide 2-8, 3-16)",IC50,[7],0.027 µM
C[C@@H]1NC(=O)[C@@H]2CSSC[C@H](NC(=O)CN)C(=O)N[C@@H](CSSC[C@@H](C(N)=O)NC(=O)[C@H](CCCNC(=N)N)NC(=O)[C@H](Cc3c[nH]c4ccccc34)NC1=O)C(=O)N[C@@H](CO)C(=O)N[C@@H](CC(=O)O)C(=O)N1CCC[C@H]1C(=O)N[C@@H](CCCNC(=N)N)C(=O)N2,IC50,[8],0.069 µM
CC(C)C[C@@H]1NC(=O)[C@H](C(C)C)NC(=O)[C@H](C)NC(=O)[C@@H]2CSSC[C@H](NC(=O)CN)C(=O)N[C@@H](CSSC[C@H](C(=O)NCC(=O)O)NC(=O)[C@H](Cc3ccc(O)cc3)NC1=O)C(=O)N[C@@H](CO)C(=O)N[C@@H](C)C(=O)N1CC(O)C[C@H]1C(=O)N1CCC[C@H]1C(=O)N2 (stereo partly specified),IC50,[9],1.2 µM
same,IC50,[6],0.0581 µM
CC(C)C[C@@H]1NC(=O)[C@H](C(C)C)NC(=O)[C@H](C)NC(=O)[C@@H]2CSSC[C@H](NC(=O)CN)C(=O)N[C@@H](CSSC[C@H](C(=O)NCC(=O)O)NC(=O)[C@H](Cc3ccc(O)cc3)NC1=O)C(=O)N[C@@H](CO)C(=O)N[C@@H]([C@@H](C)O)C(=O)N1CC(O)C[C@H]1C(=O)N1CCC[C@H]1C(=O)N2 (stereo partly specified),IC50,[10],1.3 µM
same,IC50,[11],0.012 µM
CC(C)[C@@H]1NC(=O)[C@H](Cc2cnc[nH]2)NC(=O)[C@@H]2CCCN2C(=O)[C@H](CC(N)=O)NC(=O)[C@H](CC(N)=O)NC(=O)[C@H](C(C)C)NC(=O)[C@H](CCCNC(=N)N)NC(=O)[C@H]2CSSC[C@H](NC(=O)[C@H](CCC(=O)O)NC(=O)[C@@H](N)CC(=O)O)C(=O)N[C@@H](CSSC[C@@H](C(=O)N[C@@H](CCCNC(=N)N)C(=O)N[C@@H](CCCNC(=N)N)C(=O)N[C@@H](CCCNC(=N)N)C(=O)O)NC1=O)C(=O)N[C@@H](CO)C(=O)N[C@@H](CC(N)=O)C(=O)N1CCC[C@H]1C(=O)N[C@@H](C)C(=O)N2,IC50,[3],0.006 µM
same,IC50,[5],0.06 µM
same,IC50,[7],0.002 µM

# Source: ChEMBL document CHEMBL5055626 (J Med Chem, 2021)
